Results taken from patent US20080026076A1 (priority 2003, published 2008).
Where “and” joins values, the source holds several entries; their conditions need not be identical. Equal entries are not always repeated. Marks after values point to notes of the source that are not given here.

Tested on: rats with abdominal aortic constriction (AAC) or sham operated
Assay: Blood pressure in caudal and carotid arteries of conscious rats, abdominal aortic constriction pressure overload model
Format: in vivo, rat
Settings: quercetin 1.5 g/kg chow, mean ± SEM
Source text: In this procedure the abdominal aorta is constricted to increase the afterload on the heart and produce pressure overload. […] Rats consumed this diet for 7 days. On the 8th day, 5 rats were surgically modeled for pressure overload by constricting the abdominal aorta to a diameter of 0.63 mm with a Weck hemoclip. The other 5 rats were sham operated (anesthetized and the aorta exposed, but not constricted). […] Another group of 10 rats were placed on a standard diet with no supplement and treated in an identical fashion with 5 surgically modeled for pressure overload and 5 sham operated. […] Two weeks after surgery post-sacrifice morphometric measurements are obtained by measuring total heart weight, left ventricle weight, and calculating heart:body weight and left ventricle:body weight ratios to assess cardiac mass and cardiac hypertrophy. […] An identical experimental procedure as described in Example I is used with n=10 rats per group (S, AAC, SQ, AAC-Q) for a total of 40 rats. […] Rats subjected to this protocol have very high carotid blood pressure. Rats are anesthetized, a catheter is placed in the caudal and carotid arteries, rats are allowed to regain consciousness for 60 minutes and blood pressures are measured.

Compound: O=c1c(O)c(-c2ccc(O)c(O)c2)oc2cc(O)cc(O)c12 [quercetin, 3,5,7,3′,4′-pentahydroxyflavone]
- Caudal MAP (mean arterial pressure) (AAC + Q: AAC rats): 108.0 ± 7.1 mmHg
- Diastolic Caudal blood pressure (AAC + Q: AAC rats): 104.7 ± 5.5^b mmHg
- Gradient MAP (AAC + Q: AAC rats): 18.3 ± 4.4^b mmHg
- Systolic Caudal blood pressure (AAC + Q: AAC rats): 118.3 ± 6.4 mmHg
- Systolic Carotid blood pressure (AAC + Q: AAC rats, untreated AAC 201.4 ± 11.4): 158.8±10.3 mmHg and 158.8 ± 10.3^b mmHg
- Carotid MAP (mean arterial pressure) (Sham + Q: sham operated rats): 113.5 ± 3.8^a mmHg
- Caudal MAP (mean arterial pressure) (Sham + Q: sham operated rats): 100.6 ± 3.0 mmHg
- Diastolic Carotid blood pressure (Sham + Q: sham operated rats): 106.2 ± 4.8^a mmHg
- Diastolic Caudal blood pressure (Sham + Q: sham operated rats): 93.6 ± 3.2^a mmHg
- Diastolic Gradient (carotid vs caudal) (Sham + Q: sham operated rats): 7.0 ± 2.9^a mmHg
- Gradient MAP (Sham + Q: sham operated rats): 7.2 ± 1.9^ab mmHg
- Systolic Carotid blood pressure (Sham + Q: sham operated rats): 128.2 ± 1.9^a mmHg
- Systolic Caudal blood pressure (Sham + Q: sham operated rats): 114.7 ± 3.2 mmHg
- Systolic Gradient (carotid vs caudal) (Sham + Q: sham operated rats): 7.3 ± 1.9^a mmHg
